The data set is described as follows: Visual solubility of 4-vinylphenyl boronic acid with sorbitol as solubilizing agent. The data set is classed as physicochemical. The protocol: In this example, sorbitol was used as an illustrative solubilizing agent to improve the solubility of 4-vinylphenyl boronic acid. A stock solution of 20 g of sorbitol in 200 mL of deionized water was prepared to give a sorbitol concentration of 0.55 M. In several plastic sealable containers was placed 11-15 mg of the boronic acid (maximum of 0.1 mmol in each container), and a variety of solutions were added to the containers, sometimes with pH adjustment. Thereafter, the containers were vortex mixed for 5 minutes, and solubility was analyzed visually.

For the molecule `C=Cc1ccc(B(O)O)cc1` [4-vinylphenyl boronic acid], the “Soluble?” value was “no” (Sample # 1: 10 mL deionized H2O, 11-15 mg boronic acid, vortex 5 minutes, visual); “yes” (Sample # 2: 10 mL stock sorbitol (0.55 M)); “yes” (Sample # 3: 10 mL stock sorbitol, pH = 14); “no” (Sample # 4: 200 μL stock sorbitol, 5 mL deionized H2O); “yes” (Sample # 5: 5 mL deionized H2O, pH = 12.3); “no” (Sample # 6: 1 mL stock sorbitol, 5 mL deionized H2O). The “Soluble?” value by setting is: (Sample # 7: 2 mL stock sorbitol, 6 mL deionized H2O) “no”; (Sample # 8: 200 μL stock sorbitol, 5 mL deionized H2O, pH = 10.6) “no”; (Sample # 9: 2 mL stock sorbitol, 6 mL deionized H2O, pH = 11.0) “yes”; (Sample # 10: 2 mL stock sorbitol, 10 mL deionized H2O, pH = 10.4) “yes”; (Sample # 11: 10 mL deionized H2O, pH = 9.8) “no”; (Sample # 12: 2 mL stock sorbitol, 10 mL deionized H2O, pH = 9.2) “no”. Besides, the “Soluble?” value (Sample # 13: 2 mL stock sorbitol, 10 mL deionized H2O, pH = 9.4) was “yes”.

(Values after patent publication US8708045B2, “Multifunctional boronic acid crosslinking agents and associated methods” (Halliburton Energy Services, Inc., priority 2010, dated 2014).)
